In series [1] the test system is MALME-3M. As to the kind of experiment: in vitro melanoma cell growth inhibition (NCI screen).
For series [2], the system named is SK-MEL-28. The description is as above.
In series [3] the test system is NCI-H460. Description: in vitro non-small cell lung cancer cell growth inhibition (NCI screen).
Series [4] has as its system SK-MEL-2. Description: in vitro melanoma cell growth inhibition (NCI screen).
Series [5] has as its system UACC-62. The description is as above.
For series [6], the system named is OVCAR-4. Description: in vitro ovarian cancer cell growth inhibition (NCI screen). The following applies: OVACR-4.
Series [7] deals with DU-145. Description: in vitro prostate cancer cell growth inhibition (NCI screen).
Series [8] relates to UACC-257. Description: in vitro melanoma cell growth inhibition (NCI screen).
Series [9] has as its system HCC-2998. As to the kind of experiment: in vitro colon cancer cell growth inhibition (NCI screen).
Series [10] relates to BT-549. Description: in vitro breast cancer cell growth inhibition (NCI screen).
Series [11] deals with HCT-116. Description: in vitro colon cancer cell growth inhibition (NCI screen).
In series [12] the test system is NCI-H23. Description: in vitro non-small cell lung cancer cell growth inhibition (NCI screen).
The subject of series [13] is MDA-MB-435. As to the kind of experiment: in vitro breast cancer cell growth inhibition (NCI screen).
The subject of series [14] is MDA-N. The description is as above.
The test system of series [15] is OVCAR-5. As to the kind of experiment: in vitro ovarian cancer cell growth inhibition (NCI screen).
Series [16] deals with IGROV1. The series is described as above.
The subject of series [17] is OVCAR-3. The description is as above.
Series [18] deals with SF-539. As to the kind of experiment: in vitro CNS cancer cell growth inhibition (NCI screen).
In series [19] the test system is MCF-7. Description: in vitro breast cancer cell growth inhibition (NCI screen).
For series [20], the system named is M14. As to the kind of experiment: in vitro melanoma cell growth inhibition (NCI screen).
Series [21] relates to 786-0. Description: in vitro renal cancer cell growth inhibition (NCI screen).
For series [22], the system named is HS 578T. Description: in vitro breast cancer cell growth inhibition (NCI screen).
The subject of series [23] is human tumor cell lines. The series is classed as cell-based. The following applies: for GI50: Homo sapiens.
Series [24] concerns NCI-H522. Description: in vitro non-small cell lung cancer cell growth inhibition (NCI screen).
Series [25] has as its system RXF-393. As to the kind of experiment: in vitro renal cancer cell growth inhibition (NCI screen).
The subject of series [26] is SF-295. As to the kind of experiment: in vitro CNS cancer cell growth inhibition (NCI screen).
The test system of series [27] is SNB-75. The series is described as above.
In series [28] the test system is SK-OV-3. Description: in vitro ovarian cancer cell growth inhibition (NCI screen).
Series [29] relates to KB cells. As to the kind of experiment: in vitro cytotoxicity screening against KB cells in culture. The following applies: Homo sapiens, calculated from 2 data points across 50% inhibition in cell growth, read-out: ED50 (the source's name). The series is classed as cell-based. On the procedure: Compound 5 was assayed for in vitro cytotoxicity against KB cells in culture, following the protocol of Monks. The KB cell line was obtained from the American Type Culture Collection, Rockville, MD, and cells were adapted to grow in antibiotic-free RPMI-1640 medium supplemented with […] calf serum.
The ED50 value was calculated mathematically from 2 data points across 50% inhibition in cell growth.

Series [30] deals with OVCAR-8. As to the kind of experiment: in vitro ovarian cancer cell growth inhibition (NCI screen).
For series [31], the system named is HOP-92. Description: in vitro non-small cell lung cancer cell growth inhibition (NCI screen).
For series [32], the system named is SF-268. As to the kind of experiment: in vitro CNS cancer cell growth inhibition (NCI screen).
Series [33] has as its system U 251. The series is described as above.
Series [34] deals with KM 12. As to the kind of experiment: in vitro colon cancer cell growth inhibition (NCI screen).
Series [35] has as its system COLO-205. The series is described as above.
Series [36] has as its system SW 620. Described as above.
Setting [37] is: cancer cell panel, general / most cell lines, read-out: logGI50 values in the cancer cell line panel (converted).

SMILES strings stand for the structures. Read-outs that look alike come from different tables or passages of the source.

Consider `COC(=O)CCCC(=O)NC1=C(Nc2ccc(OC)cc2)C(=O)c2ccccc2C1=O` [Compound 53], for which the “cytotoxicity log GI50” value was -5.47 M in [1]; -4.68 M in [2]; -4.80 M in [3]; -4.75 M in [4]; -4.89 M in [5]; -4.75 M in [6]. The “cytotoxicity log GI50” value in [7] is -4.79 M; in series [8], -4.74 M; in series [9], -4.69 M; in series [10] it was -4.71 M; in series [11] it was -4.71 M; in series [12], -4.69 M. Also, the “cytotoxicity log GI50” value in series [13] is reported as -4.74 M; in [14] it was -4.68 M; in series [15], -4.73 M; in series [16] it was -4.74 M; in series [17], -5.20 M; in series [18] it was -4.71 M. Also, the “cytotoxicity log GI50” value in series [19] is listed as -4.77 M; in [20], -4.71 M.

Consider `CCn1c(-c2cc(OC)cc(OC)c2)nc2c1C(=O)c1ccccc1C2=O` [Compound 28], for which the “cytotoxicity log GI50” value in [21] is -4.34 M; in series [22], -4.44 M; in series [5], -4.69 M; in [24], -5.19 M; in series [25], -4.86 M; in series [26], -4.53 M. In addition, the “cytotoxicity log GI50” value in [27] is recorded as -4.65 M; in series [28], -5.41 M. For the same molecule, the GI50 in [23] (setting [37]) was around 10000 nM.

As to `CCn1c(C)nc2c1C(=O)c1ccccc1C2=O` [Compound 5, 1-ethyl-2-methylnaphth-[2,3-d]imidazole-4,9-dione], in series [29], the IC50 is below 0.4 µg/mL. Moreover, the “cytotoxicity log GI50” value in series [30] is on record as -6.31 M; in [31] it was -5.79 M; in [6], -6.49 M; in [32], -6.48 M; in series [33] it was -5.72 M; in [34], -5.76 M. Also, the “cytotoxicity log GI50” value is -6.45 M in series [35]; -6.62 M in series [24]; -5.91 M in series [11]; -5.81 M in series [12]; -6.17 M in [36]; -6.11 M in [15]. In addition, the “cytotoxicity log GI50” value was -7.30 M in [17] and -6.17 M in series [19]. The GI50 in [23] (OVCAR-3, -4, -5, and -8 ovarian cancer cell lines, read-out: logGI50 values (range over cell lines) (converted)) is 50.1 to 794 nM; in series [23] (setting [37]) it was 100 to 1000 nM. Also, in series [23] (cancer cell line panel), the “cytotoxicity against tumor cells (in words)” value is “most active naphth[2,3-d]imidazole-4,9-dione derivative”.

These data come from US5789431A, “Naphthoquinone antitumor compound and method” (The University of North Carolina at Chapel Hill, priority 1996, dated 1998).
